Measured values taken from patent US20230080054A1 (ILDONG PHARMACEUTICAL CO., LTD., priority 2021, published 2023).

Columns and labels:
human ANO6 [1] = molecular target: T1, human ANO6 (Homo sapiens, UniProt Q4KMQ2); assay: YFP quenching assay (ANO6 ion channel activity); format: cell-based; settings: 10 μM ionomycin; for inhibition at 1 µM: test compound 1 μM, read-out: Inhibition Level 1 μM; for inhibition at 30 µM: test compound 30 μM, read-out: Inhibition Level 30 μM
T1 construct: expressed in transfected cells
T1 sequence (Q4KMQ2 1-931 isoform Q4KMQ2-2): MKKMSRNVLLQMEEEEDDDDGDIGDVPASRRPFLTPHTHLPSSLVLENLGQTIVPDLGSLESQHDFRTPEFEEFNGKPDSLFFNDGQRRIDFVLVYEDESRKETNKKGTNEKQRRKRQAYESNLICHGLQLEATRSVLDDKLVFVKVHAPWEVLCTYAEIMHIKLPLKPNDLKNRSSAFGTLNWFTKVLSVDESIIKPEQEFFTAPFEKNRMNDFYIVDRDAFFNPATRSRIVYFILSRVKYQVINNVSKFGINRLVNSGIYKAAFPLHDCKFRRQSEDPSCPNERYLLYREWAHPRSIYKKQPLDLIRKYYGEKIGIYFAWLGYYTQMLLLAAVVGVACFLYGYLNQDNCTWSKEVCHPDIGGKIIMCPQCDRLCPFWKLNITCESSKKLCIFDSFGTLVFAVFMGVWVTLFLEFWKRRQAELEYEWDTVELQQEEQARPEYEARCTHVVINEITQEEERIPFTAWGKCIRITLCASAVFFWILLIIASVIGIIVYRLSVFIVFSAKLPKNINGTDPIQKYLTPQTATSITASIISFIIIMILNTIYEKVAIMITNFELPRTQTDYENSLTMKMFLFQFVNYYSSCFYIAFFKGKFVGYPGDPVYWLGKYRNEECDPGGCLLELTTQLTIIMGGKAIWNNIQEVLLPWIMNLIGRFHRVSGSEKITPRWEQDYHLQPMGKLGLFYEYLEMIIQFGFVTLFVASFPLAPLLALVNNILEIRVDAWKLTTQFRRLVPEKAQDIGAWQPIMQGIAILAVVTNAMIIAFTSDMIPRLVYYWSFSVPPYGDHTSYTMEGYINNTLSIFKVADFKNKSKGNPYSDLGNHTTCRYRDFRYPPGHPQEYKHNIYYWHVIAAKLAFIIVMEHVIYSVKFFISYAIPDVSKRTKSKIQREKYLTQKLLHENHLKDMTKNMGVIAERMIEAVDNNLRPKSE
Method in brief: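 FRT cells stably expressing human ANO6 and YFP-H148Q/I152L/F46L, preincubated 10 min at 40° C with compounds (1% DMSO) in PBS. Quench read every 0.4 s after injecting 140 mM SCN- with 10 μM ionomycin; % inhibition from the 3.6–7.6 s fluorescence difference, normalised to no-ionomycin (100%) and ionomycin-only (0%) wells, duplicate or triplicate.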

human ANO6 [2] = molecular target: T1, human ANO6; assay: LACT C2 assay (phosphatidylserine scramblase function assay); format: cell-based; settings: FRT cells expressing human ANO6, 10 μM ionomycin; for inhibition at 0.1 µM: test compound 100 nM, read-out: Inhibition Level 100 nM; for inhibition at 1 µM: test compound 1 μM, read-out: Inhibition Level 1 μM
Method in brief: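 Inhibition was normalised between ionomycin-only (0%) and untreated (100%) wells, with triplicates averaged. Readout was background-corrected Lact-C2-GFP (500 nM) fluorescence from imaged cells. The cells were FRT cells stably expressing human ANO6, given compound at 1% DMSO for 10 min before a 10 min 10 μM ionomycin challenge.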

inhibition at 1 µM (human ANO6 [1]) [%]	inhibition at 30 µM (human ANO6 [1]) [%]	inhibition at 0.1 µM (human ANO6 [2]) [%]	inhibition at 1 µM (human ANO6 [2]) [%]	Structure (SMILES)
30 to 60	≥ 60	< 30	< 30	CCOc1ccc(CNC(=O)c2cccc(Nc3ccc(-c4ccccc4)nn3)c2)cc1OCC [Compound A54]
≥ 60	≥ 60		< 30	Cc1ccc(CNC(=O)c2cccc(Nc3ccc(-c4cccnc4)nn3)c2)o1 [Compound 10, N-[(5-methylfuran-2-yl)methyl]-3-{[6-(pyridin-3-yl)pyridazin-3-yl]amino}benzamide]
≥ 60	≥ 60	< 30	30 to 60	O=C(Nc1cccc(F)c1)c1cccc(Nc2ccc(-c3ccc(F)cc3)nn2)c1 [Compound A15]
≥ 60	≥ 60	< 30	30 to 60	Cc1cccc(CNC(=O)c2cccc(Nc3ccc(-c4ccccc4)nn3)c2)c1 [Compound A50]
≥ 60	≥ 60	< 30	< 30	CCCCNC(=O)c1cccc(Nc2ccc(-c3ccc(F)cc3)nn2)c1 [Compound A10]
30 to 60	≥ 60	< 30	< 30	Cc1ccc(CNC(=O)c2cccc(Nc3ccc(-c4ccc(F)cc4)nn3)c2)o1 [Compound A1]
< 30		< 30	< 30	O=C(NCCN1CC2CCC1C2)c1cccc(Nc2ncc(-c3ccccc3)cn2)c1 (centres unmarked) [Compound 105, N-(2-{2-azabicyclo[2.2.1]heptan-2-yl}ethyl)-3-[(5-phenylpyrimidin-2-yl)amino]benzamide]
≥ 60			30 to 60	Cc1ccc(CNC(=O)c2cccc(Nc3ccc(-c4cccc(F)c4)nn3)c2)o1 [Compound A87]
≥ 60		30 to 60	≥ 60	Cc1ccc(CNC(=O)c2cccc(Nc3ccc(-c4cscc4C)nn3)c2)o1 [Compound 74, N-[(5-methylfuran-2-yl)methyl]-3-{[6-(4-methylthiophen-3-yl)pyridazin-3-yl]amino}benzamide]
≥ 60		30 to 60	≥ 60	O=C(NCCCc1ccccc1)c1cccc(Nc2ncc(-c3cccc(F)c3)cn2)c1 [Compound 60, 3-{[5-(3-fluorophenyl)pyrimidin-2-yl]amino}-N-(3-phenylpropyl)benzamide]
≥ 60	≥ 60	30 to 60	≥ 60	O=C(NCc1ccc(Cl)c(Cl)c1)c1cccc(Nc2ccc(-c3ccccc3)nn2)c1 [Compound 36, N-(3,4-dichlorobenzyl)-3-((6-phenylpyridazin-3-yl)amino)benzamide]
30 to 60			30 to 60	O=C(NCc1ccco1)c1cccc(Nc2ccc(-c3ccccc3)nn2)c1 [Compound 46, N-[(furan-2-yl)methyl]-3-[(6-phenylpyridazin-3-yl)amino]benzamide]
≥ 60		< 30	≥ 60	CCOc1ccc(NC(=O)c2cccc(Nc3ccc(-c4ccccc4)nn3)c2)cc1 [Compound A80]
30 to 60			< 30	O=C(NCCc1cc(F)cc(F)c1)c1cccc(Nc2ncc(-c3ccccc3)cn2)c1 [Compound 82, N-[2-(3,5-difluorophenyl)ethyl]-3-[(5-phenylpyrimidin-2-yl)amino]benzamide]
≥ 60	≥ 60	< 30	30 to 60	Cc1ccccc1CNC(=O)c1cccc(Nc2ccc(-c3ccccc3)nn2)c1 [Compound A48]
30 to 60	≥ 60	< 30	30 to 60	O=C(NCc1ccc(Cl)cc1)c1cccc(Nc2ccc(-c3ccccc3)nn2)c1 [Compound A49]

inhibition at 1 µM (human ANO6 [1]) [%]	inhibition at 30 µM (human ANO6 [1]) [%]	inhibition at 0.1 µM (human ANO6 [2]) [%]	inhibition at 1 µM (human ANO6 [2]) [%]	Structure (SMILES)
≥ 60	≥ 60	< 30	< 30	O=C(NC1CCCCC1)c1cccc(Nc2ccc(-c3ccc(F)cc3)nn2)c1 [Compound A2]
≥ 60	≥ 60		30 to 60	O=C(NCc1ccc(F)cc1)c1cccc(Nc2ccc(-c3ccccc3)nn2)c1 [Compound A24]
≥ 60			< 30	Cc1ccc(CNC(=O)c2cccc(Nc3cnc(-c4cccc(F)c4)cn3)c2)o1 [Compound 58, 3-{[5-(3-fluorophenyl)pyrazin-2-yl]amino}-N-[(5-methylfuran-2-yl)methyl]benzamide]
≥ 60	≥ 60	30 to 60	≥ 60	CCCCCCNC(=O)c1cccc(Nc2ccc(-c3ccccc3)nn2)c1 [Compound A37]
≥ 60	≥ 60	< 30	≥ 60	Cc1ccc(CNC(=O)c2cccc(Nc3ccc(-c4ccoc4)nn3)c2)o1 [Compound 7, 3-{[6-(furan-3-yl)pyridazin-3-yl]amino}-N-[(5-methylfuran-2-yl)methyl]benzamide]
≥ 60	≥ 60	< 30	< 30	O=C(NCc1ccccc1)c1cccc(Nc2ccc(-c3cccc(F)c3)nn2)c1 [Compound A34]
30 to 60	≥ 60		< 30	CNC(=O)c1cccc(Nc2ccc(-c3ccccc3)nn2)c1 [Compound 41, N-methyl-3-[(6-phenylpyridazin-3-yl)amino]benzamide]
≥ 60			30 to 60	Cc1ccc(CNC(=O)c2cccc(Nc3ncc(-c4ccccc4C(F)(F)F)cn3)c2)o1 [Compound 98, N-[(5-methylfuran-2-yl)methyl]-3-({5-[2-(trifluoromethyl)phenyl]pyrimidin-2-yl}amino)benzamide]
≥ 60	≥ 60		30 to 60	Cc1ccc(CNC(=O)c2cccc(Nc3ccc(-c4ccccc4)nc3)c2)o1 [Compound 6, N-[(5-methylfuran-2-yl)methyl]-3-[(6-phenylpyridin-3-yl)amino]benzamide]
≥ 60	≥ 60	< 30	< 30	Cc1cccc(CNC(=O)c2cccc(Nc3ccc(-c4ccc(F)cc4)nn3)c2)c1 [Compound A5]
≥ 60		< 30	≥ 60	O=C(Nc1ccc2c(c1)OCO2)c1cccc(Nc2ncc(-c3cccc(F)c3)cn2)c1 [Compound A85]
≥ 60	≥ 60	≥ 60	≥ 60	CCCCCCCNC(=O)c1cccc(Nc2ccc(-c3ccccc3)nn2)c1 [Compound A38]
≥ 60	≥ 60	< 30	< 30	CC(CCc1ccccc1)NC(=O)c1cccc(Nc2ccc(-c3ccccc3)nn2)c1 (centres unmarked) [Compound A58]
30 to 60	≥ 60			Cc1ccc(CNC(=O)c2cccc(Nc3ccc(-c4ccco4)nn3)c2)o1 [Compound 8, 3-{[6-(furan-2-yl)pyridazin-3-yl]amino}-N-[(5-methylfuran-2-yl)methyl]benzamide]
30 to 60	≥ 60			CCNC(=O)c1cccc(Nc2ccc(-c3ccccc3)nn2)c1 [Compound 37, N-ethyl-3-[(6-phenylpyridazin-3-yl)amino]benzamide]

Structure (SMILES)	inhibition at 1 µM (human ANO6 [1]) [%]	inhibition at 30 µM (human ANO6 [1]) [%]	inhibition at 0.1 µM (human ANO6 [2]) [%]	inhibition at 1 µM (human ANO6 [2]) [%]
Cc1ccc(CNC(=O)c2cccc(Nc3ccc(-c4cccc(F)c4)cc3)c2)o1 [Compound 57, 3-({3′-fluoro-[1,1′-biphenyl]-4-yl}amino)-N-[(5-methylfuran-2-yl)methyl]benzamide]	≥ 60		< 30	≥ 60
